Experimental data as given in patent US20230348450A1, “CARBOXYLIC ACID-CONTAINING COMPOUNDS AS MODULATORS OF BIS-PHOSPHOGLYCERATE MUTASE FOR THE TREATMENT OF SICKLE CELL DISEASE” (Genzyme Corporation, priority 2020, published 2023).

Legend:
human red blood cells = experiment: Human Cell-Based Assay; details: Erythrocyte; human whole blood suspension, 37° C., 24 h; metabolites (2,3-BPG, ATP) by LC/MS; read-out: hRBC EC50
Experimental: Example B3. Human Cell-Based Assay
The following materials were used in this assay: DMSO; Hemox buffer (30 mM TES, 135 mM NaCl, 5 mM KCl, pH 7.4); Inosine (100 mM in hemox buffer); Glucose (1 M in water); human red blood cells; LC/MS Optima grade methanol; LC/MS Optima grade water; and Incubation buffer (30 mM TES, 135 mM NaCl, 5 mM KCl, 50 mM inosine, 20 mM glucose pH 7.4).
Test compounds were loaded onto a 96-well plate (final concentration of DMSO was 1%). 10 mL whole blood was resuspended with an equivalent amount of 2× incubation buffer to make 25% het & 50% plasma solution. The final solution contains 10 mM glucose and 25 mM inosine. The blood suspension (100 uL) was added to the wells of the plate. The plate was covered with an adhesive foil cover and plastic lid, and incubated at 37° C. for 24 h. The samples were extracted through an SPE column and the metabolites (2,3-BPG, ATP) were analyzed by LC/MS.

[1] = molecular target: human Bisphosphoglycerate mutase (hBPGM) (Homo sapiens (Human), UniProt P07738); experiment: BPGM Phosphatase Assay; type: biochemical; details: Table 6 additional results; read-out: huBPGM: phosphatase Enzyme EC50
Sequence of human Bisphosphoglycerate mutase (hBPGM) (P07738 whole entry): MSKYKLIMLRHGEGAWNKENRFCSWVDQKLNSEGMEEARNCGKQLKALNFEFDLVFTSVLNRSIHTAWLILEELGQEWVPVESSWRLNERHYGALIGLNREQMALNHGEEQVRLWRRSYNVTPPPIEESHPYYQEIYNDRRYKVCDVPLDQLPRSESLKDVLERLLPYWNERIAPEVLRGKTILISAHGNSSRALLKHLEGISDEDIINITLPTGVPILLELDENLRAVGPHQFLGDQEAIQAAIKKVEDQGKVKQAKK
Experimental: Solutions of the test compounds were then added to the plate and the DMSO content was normalized across the plate. The plate was incubated at RT for 15 min. Next, the substrate 2,3-BPG (5 μL) was added to all the wells, and the plate was sealed and incubated for 24 hr at RT. After incubation, BIOMOL green dye (40 μL) was added to all the wells, the plate was shaken to mix, and the plate was incubated at RT for 20-30 min.

hBPGM = hBPGM (Homo sapiens (Human), UniProt P07738); experiment: BPGM Synthase Assay; type: biochemical; details: Table 6 additional results; read-out: huBPGM: synthase Enzyme IC50
Sequence of hBPGM (P07738 whole entry, looked up): as the sequence (P07738 whole entry) above
Method in brief: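 BPGM (5 nM) with GAPDH (0.4 U/mL) was incubated with compound for 30 min at RT in pH 7.4 Tris buffer with 3.23 mM KH2PO4 and 1 mM DTT. Reaction ran 60 min with NAD, 3PG and GAP (substrate solution 2 mM, 20 μM and 800 μM). After koningic acid stop, NADH fluorescence was read, then resorufin from diaphorase/resazurin coupling.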

Row | SMILES | EC50 (human red blood cells) [µM] | EC50 [1] [nM] | IC50 (hBPGM) [nM]
1 | Cc1nc(COc2ncccn2)sc1-c1cccc(-c2ccc(S(=O)(=O)CC(=O)O)cc2)n1 [compound 2, 2-[4-[6-[4-methyl-2-(pyrimidin-2-yloxymethyl)thiazol-5-yl]-2-pyridyl]phenyl]sulfonylacetic Acid] | > 100 |  | 
2 | Cc1nc(CN)sc1-c1csc(-c2ccc(C(=O)O)c(O)c2)n1 [Example 230] |  | > 25000 | 4400
3 | Cc1nc(COC(=O)N(C)C)sc1-c1csc(-c2cc(O)c(C(=O)O)cc2F)n1 [Example 158] |  | > 25000 | 44
4 | Cc1nc(COc2ncccn2)sc1-c1cccc(-c2cnc(C(=O)O)s2)n1 [Example 94] |  | > 25000 | 11000
5 | Cc1nc(Cn2cccn2)sc1-c1cccc(-c2cc(O)c(C(=O)O)cc2F)c1 [Example 262] |  | 510 | 530
6 | Cc1nc(COc2ncccn2)sc1-c1cccc(-c2ccc(C(=O)O)c(O)c2)c1 [Example 142] |  | 130 | 190
7 | Cc1nc(Cc2ccn(C)n2)sc1-c1csc(-c2ccc(C(=O)O)c(O)c2)c1 [Example 216] |  | 200 | 190
8 | Cc1nc(Cn2c(C)cccc2=O)sc1-c1cccc(-c2ccc(C(=O)O)c(O)c2)c1 [Example 267] |  | 350 | 520
9 | Cc1nc(CNC(=O)C2CCCC2)sc1-c1csc(-c2cc(O)c(C(=O)O)cc2F)n1 [Example 222] |  | 130 | 110
10 | Cc1nc(C)c(-c2nc(-c3ccc(C(=O)O)c(O)c3)co2)s1 [Example 275] |  | > 25000 | 5000
11 | Cc1nc(Cc2cccnc2)sc1-c1cccc(-c2cc(O)c(C(=O)O)cc2F)n1 [Example 217] |  | 120 | 110
12 | Cc1nc(CNC(=O)C2CC2)sc1-c1csc(-c2cc(O)c(C(=O)O)cc2F)n1 [Example 232] |  | 93 | 60
13 | Cc1cccc(OCc2nc(C)c(-c3cccc(-c4ccc(C(=O)O)c(O)c4)c3)s2)n1 [Example 269] |  | 270 | 2000
14 | Cc1nc(Cc2ccccc2)sc1-c1cccc(-c2cc(O)c(C(=O)O)cc2F)n1 [Example 162] |  | 60 | 140
15 | Cc1nc(CNc2ncccn2)sc1-c1cccc(-c2ccc(C(=O)O)cc2)n1 [Example 63] |  | > 25000 | 630
16 | Cc1nc(CNc2ccccn2)sc1-c1cccc(-c2ccc(C(=O)O)c(O)c2)c1 [Example 246] |  | 110 | 820
17 | Cc1nc(C(=O)c2ccn(C)n2)sc1-c1csc(-c2ccc(C(=O)O)c(O)c2)n1 [Example 190] |  | 610 | 360
18 | Cc1nc(C(C)NC(=O)c2cccnn2)sc1-c1csc(-c2cc(O)c(C(=O)O)cc2F)n1 (centres unmarked) [Example 151] |  | 70 | 65
19 | Cc1nc(Cc2cccnc2)sc1-c1csc(-c2cc(O)c(C(=O)O)cc2F)n1 [Example 228] |  | 55 | 87
20 | Cc1nc(C)c(-c2csc(-c3cc(O)c(C(=O)O)cc3F)c2)s1 [Example 254] |  | 220 | 290
21 | Cc1nc(CNC2CCCCC2)sc1-c1csc(-c2cc(O)c(C(=O)O)cc2F)n1 [Example 174] |  | 230 | 530
22 | Cc1nc(CNC(=O)C2CC2)sc1-c1ccc(-c2ccc(C(=O)O)c(O)c2)s1 [Example 245] |  | 820 | 690
23 | Cc1ccnc(NCc2nc(C)c(-c3cccc(-c4ccc(C(=O)O)c(O)c4)c3)s2)c1 [Example 68] |  | 60 | 1400
24 | Cc1nc(CO)sc1-c1cccc(-c2cc(C(=O)O)cs2)n1 [Example 75] |  | > 25000 | 4600

Row | SMILES | EC50 (human red blood cells) [µM] | EC50 [1] [nM] | IC50 (hBPGM) [nM]
25 | Cc1nc(CNC(=O)OC2CC2)sc1-c1csc(-c2cc(O)c(C(=O)O)cc2F)n1 [Example 215] |  | 55 | 95
26 | Cc1nc(Cn2ccccc2=O)sc1-c1cccc(-c2ccc(C(=O)O)c(O)c2)n1 [Example 101] |  | 7300 | 760
27 | Cc1nc(Cn2cccn2)sc1-c1cccc(-c2ccc(C(=O)O)c(O)c2)c1 [Example 286] |  | 3100 | 810
28 | Cc1nc(CNC(=O)C2CCN(C)C2)sc1-c1csc(-c2cc(O)c(C(=O)O)cc2F)n1 (centres unmarked) [Example 127] |  | 420 | 490
29 | Cc1nc(CNC(=O)c2cccnc2)sc1-c1csc(-c2cc(O)c(C(=O)O)cc2F)n1 [Example 199] |  | 320 | 67
30 | Cc1nc(COc2ccccn2)sc1-c1cccc(-c2ccc(C(=O)O)c(O)c2)c1 [compound 4, 2-hydroxy-4-[3-[4-methyl-2-(2-pyridyloxymethyl)thiazol-5-yl]phenyl]benzoic Acid] | 23.5 |  | 
31 | Cc1nc(CNC(=O)c2cccnn2)sc1-c1cccc(-c2ccc(C(=O)O)cc2)c1 [Example 71] |  | > 25000 | 560
32 | Cc1nc(CNS(C)(=O)=O)sc1-c1csc(-c2cc(O)c(C(=O)O)cc2F)n1 [Example 224] |  | 300 | 260
33 | Cc1nc(CNc2ncccn2)sc1-c1csc(-c2cc(O)c(C(=O)O)cc2F)n1 [Example 149] |  | 70 | 30
34 | COC(=O)NCc1nc(C)c(-c2csc(-c3c(F)cc(C(=O)O)cc3F)n2)s1 [Example 225] |  | 7300 | 830
35 | Cc1nc(CNC(=O)C(N)=O)sc1-c1csc(-c2cc(O)c(C(=O)O)cc2F)n1 [Example 202] |  | 150 | 120
36 | Cc1nc(CNCC(C)(C)C)sc1-c1csc(-c2cc(O)c(C(=O)O)cc2F)n1 [Example 147] |  | 50 | 610
37 | Cc1nc(C)c(-c2csc(-c3cc(O)c(C(=O)O)cc3F)n2)s1 [Example 285] |  | 400 | 320
38 | COC(=O)N[C@@H](C)c1nc(C)c(-c2csc(-c3cc(O)c(C(=O)O)cc3F)n2)s1 [Example 177] |  | 160 | 59
39 | Cc1nc(CNCC(=O)N(C)C)sc1-c1csc(-c2cc(O)c(C(=O)O)cc2F)n1 [Example 169] |  | 110 | 480
40 | Cc1cnc(OCc2nc(C)c(-c3csc(-c4cc(O)c(C(=O)O)cc4F)n3)s2)nc1 [Example 132] |  | 50 | 45
41 | Cc1nc(COC(=O)N2CCN(C)CC2)sc1-c1csc(-c2cc(O)c(C(=O)O)cc2F)n1 [Example 118] |  | 130 | 180
42 | COC(=O)NCc1nc(C)c(-c2csc(-c3cc(O)c(C(=O)O)c(F)c3F)n2)s1 [Example 135] |  | 70 | 40
43 | Cc1nc(CNc2ccn(C)n2)sc1-c1csc(-c2cc(O)c(C(=O)O)cc2F)n1 [Example 221] |  | 35 | 90
44 | Cc1nc(COc2cccnn2)sc1-c1csc(-c2cc(O)c(C(=O)O)cc2F)n1 [Example 131] |  | 40 | 42
45 | Cc1nc(CNC(=O)C2CC2)sc1-c1cccc(-c2ccc(C(=O)O)c(O)c2)c1 [Example 276] |  | 590 | 480
46 | Cc1nc(CNC(=O)CN(C)C)sc1-c1csc(-c2cc(O)c(C(=O)O)cc2F)n1 [Example 120] |  | > 25000 | 500
47 | COC(=O)NCc1nc(C)c(-c2cccc(-c3ccc(C(=O)O)c(O)c3)c2)s1 [Example 272] |  | 520 | 290
